# Experimental data as given in patent publication US9839623B2, “Tricyclic compounds and methods of making and using same” (Zafgen, Inc., priority 2010, dated 2017).
# Molecular target: T1, recombinant human MetAP2 (Homo sapiens, UniProt P50579)
# T1 construct: made in house; host or cells: Sf9 insect cells
# Experiment: Inhibition of recombinant human MetAP2 activity (MAS substrate, amino acid oxidase/Amplex red fluorescence)
# Type: biochemical
# Conditions: manganese enzyme, 30 minutes at 25° C., pH 7.5, 0.75 mM MAS substrate, 1% DMSO
# Protocol: Compounds are tested for their capacity to inhibit recombinant human MetAP2 activity using the following assay.
# Human recombinant MetAP2 expressed in Sf9 cells followed by affinity purification and EDTA treatment to remove endogenous active site cation was dialysed against MnCl2 to produce the manganese enzyme used in the assay. The assay was carried out for 30 minutes at 25° C. in 50 mM HEPES buffer containing 100 mM NaCl, pH 7.5 the presence of 0.75 mM Methionine-Alanine-Serine (MAS) substrate and 50 μg/mL amino acid oxidase using a dilution of purified MetAP2 giving >3-fold signal:noise. Cleavage of the substrate by MetAP2 and oxidation of free methionine by amino acid oxidase was detected and quantified using fluorescence generated by Amplex red (10-acetyl-3,7-dihydroxyphenoxazine) in combination with horseradish peroxidase which detects H2O2 released during the oxidation step. The fluorescent signal was detected using a multiwell fluorimeter. Compounds were diluted in DMSO prior to addition to assay buffer, the final DMSO concentration in the assay being 1%.
# The IC50 is defined as the concentration at which a given compound achieves 50% inhibition of control. IC50 values are calculated using the XLfit software package (version 2.0.5).
# T1 sequence (P50579 whole entry): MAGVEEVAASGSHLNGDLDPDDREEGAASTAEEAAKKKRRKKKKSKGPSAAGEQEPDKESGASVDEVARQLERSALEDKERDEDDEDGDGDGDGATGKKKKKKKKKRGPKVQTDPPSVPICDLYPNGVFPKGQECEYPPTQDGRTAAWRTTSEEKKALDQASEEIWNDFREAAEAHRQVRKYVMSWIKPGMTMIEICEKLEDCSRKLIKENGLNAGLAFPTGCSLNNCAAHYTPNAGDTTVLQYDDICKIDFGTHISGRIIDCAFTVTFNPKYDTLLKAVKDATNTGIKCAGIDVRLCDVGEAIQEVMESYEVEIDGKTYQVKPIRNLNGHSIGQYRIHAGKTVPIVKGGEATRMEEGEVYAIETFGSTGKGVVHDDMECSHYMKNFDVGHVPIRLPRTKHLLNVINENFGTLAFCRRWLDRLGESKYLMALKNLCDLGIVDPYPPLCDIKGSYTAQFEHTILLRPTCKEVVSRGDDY
row,Compound,IC50 [nM]
1,CCN(CC)C/C=C\c1cc(F)ccc1S(=O)(=O)Cc1ccc2c(c1C(=O)O)OC(C)c1occc1-2 (racemic) [Example 15],< 100
2,"CCN(CC)C/C=C\c1cc(F)ccc1S(=O)(=O)Cc1ccc2c(c1C(=O)O)OC(C)c1occc1-2 (single isomer, unassigned) [Example 18A, 7-[2-((Z)-3-diethylaminoprop-1-enyl)-4-fluorobenzenesulfonylmethyl]-4-methyl-4H-furo[2,3-c]chromene-6-carboxylic Acid]",< 100
3,"CCN(CC)C/C=C\c1cc(F)ccc1S(=O)(=O)Cc1ccc2c(c1C(=O)O)OC(C)c1occc1-2 (single isomer, unassigned) [Example 18B, 7-[2-((Z)-3-diethylaminoprop-1-enyl)-4-fluorobenzenesulfonylmethyl]-4-methyl-4H-furo[2,3-c]chromene-6-carboxylic Acid]",100 to 1000
4,"C[C@H]1Oc2c(ccc(CS(=O)(=O)c3ccccc3)c2C(=O)O)-c2ccoc21 (stereo in doubt) [Example 6, 7-(Benzenesulfonylmethyl)-4-methyl-4H-furo[2,3-c]chromene-6-carboxylic Acid]",< 100
5,"CCN(CC)C/C=C\c1cc(F)ccc1S(=O)(=O)Nc1ccc2c(c1C(=O)O)OCc1occc1-2 [Example 1, 7-[2-((Z)-3-Diethylaminoprop-1-enyl)-4-fluorobenzenesulfonylamino]-4H-furo[2,3-c]chromene-6-carboxylic Acid]",< 100
6,"O=C(O)c1c(CS(=O)(=O)c2ccccc2)ccc2c1OCc1occc1-2 [Example 2, 7-(Benzenesulfonylmethyl)-4H-furo[2,3-c]chromene-6-carboxylic Acid]",< 100
7,"O=C(O)c1c(CS(=O)(=O)c2ccccc2)ccc2c1OCCc1occc1-2 [Example 3, 8-(Benzenesulfonylmethyl)-4,5-dihydro-3,6-dioxabenzo[e]azulene-7-carboxylic Acid]",100 to 1000
8,"O=C(O)c1c(CS(=O)(=O)c2ccccc2)ccc2c1ncc1occc12 [Example 4, 7-(Benzenesulfonylmethyl)-furo[2,3-c]quinoline-6-carboxylic Acid]",100 to 1000
9,"O=C(O)c1c(CS(=O)(=O)c2ccccc2)ccc2c1oc(=O)c1occc12 [Example 5, 7-(Benzenesulfonylmethyl)-4-oxo-4H-furo[2,3-c]chromene-6-carboxylic Acid]",100 to 1000
10,"CCN(CC)C/C=C\c1cc(F)ccc1S(=O)(=O)Nc1ccc2c(c1C(=O)O)OCCc1occc1-2 [Example 7, 8-[2-((Z)-3-Diethylaminoprop-1-enyl)-4-fluorobenzenesulfonylamino]-4,5-dihydro-3,6-dioxabenzo[e]azulene-7-carboxylic Acid]",< 100
11,"CCN(CC)C/C=C\c1cc(F)ccc1S(=O)(=O)Nc1ccc2c(ncc3occc32)c1C(=O)O [Example 8, 7-[2-((Z)-3-Diethylaminoprop-1-enyl)-4-fluorobenzenesulfonylamino]-furo[2,3-c]quinoline-6-carboxylic Acid]",< 100
12,"CCN(CC)CCCc1cc(F)ccc1S(=O)(=O)Nc1ccc2c(c1C(=O)O)OCc1occc1-2 [Example 9, 7-[2-(3-Diethylaminopropyl)-4-fluorobenzenesulfonylamino]-4H-furo[2,3-c]chromene-6-carboxylic Acid]",< 100
13,"CCNC/C=C\c1cc(F)ccc1S(=O)(=O)Nc1ccc2c(c1C(=O)O)OCc1occc1-2 [Example 10, 7-[2-((Z)-3-Ethylaminoprop-1-enyl)-4-fluorobenzenesulfonylamino]-4H-furo[2,3-c]chromene-6-carboxylic Acid]",< 100
14,"CCN(CC)CCCc1cc(F)ccc1S(=O)(=O)Nc1ccc2c(c1C(=O)O)OCCc1occc1-2 [Example 11, 8-[2-(3-Diethylaminopropyl)-4-fluorobenzenesulfonylamino]-4,5-dihydro-3,6-dioxabenzo[e]azulene-7-carboxylic Acid]",< 100
15,"O=C(O)c1c(NS(=O)(=O)c2ccc(F)cc2/C=C\CN2CCOCC2)ccc2c1OCc1occc1-2 [Example 12, 7-{4-Fluoro-2-[(Z)-3-(morpholin-4-yl)prop-1-enyl]benzenesulfonylamino}-4H-furo[2,3-c]chromene-6-carboxylic Acid]",< 100
16,"O=C(O)c1c(NS(=O)(=O)c2ccc(F)cc2/C=C\CN2CCCC2)ccc2c1OCc1occc1-2 [Example 13, 7-{4-Fluoro-2-[(Z)-3-(pyrrolidin-1-yl)prop-1-enyl]benzenesulfonylamino}-4H-furo[2,3-c]chromene-6-carboxylic Acid]",< 100
17,CCN(CC)C/C=C\c1cc(F)ccc1S(=O)(=O)Nc1ccc2c(oc(=O)c3occc32)c1C(=O)O [Example 14],< 100
18,"CCN(CC)CCCc1cc(F)ccc1S(=O)(=O)Nc1ccc2c(ncc3occc32)c1C(=O)O [Example 16, 7-[2-(3-Diethylaminopropyl)-4-fluorobenzenesulfonylamino]-furo[2,3-c]quinoline-6-carboxylic Acid]",< 100
19,"CCN(CC)C/C=C\c1cc(F)ccc1S(=O)(=O)Nc1ccc2c(c1C(=O)O)OCc1cnsc1-2 [Example 17, 7-[2-((Z)-3-Diethylaminoprop-1-enyl)-4-fluorobenzenesulfonylamino]-4H-chromeno[3,4-d]isothiazole-6-carboxylic Acid]",< 100
20,CCN(CC)C/C=C\c1ccccc1S(=O)(=O)Nc1ccc2c(c1C(=O)O)OCc1occc1-2 [Example 19],< 100
21,"O=C(O)c1c(NS(=O)(=O)c2ccc(F)cc2/C=C\CN2CC[C@@H](O)C2)ccc2c1OCc1occc1-2 [Example 20, 7-{4-Fluoro-2-[(Z)-3-((R)-3-hydroxypyrrolidin-1-yl)-prop-1-enyl]-benzenesulfonylamino}-4H-furo[2,3-c]chromene-6-carboxylic Acid]",< 100
22,"O=C(O)c1c(NS(=O)(=O)c2ccc(F)cc2/C=C\CN2CC[C@H](O)C2)ccc2c1OCc1occc1-2 [Example 21, 7-{4-Fluoro-2-[(Z)-3-((S)-3-hydroxypyrrolidin-1-yl)-prop-1-enyl]-benzenesulfonylamino}-4H-furo[2,3-c]chromene-6-carboxylic Acid]",< 100
23,"CCN(CC)C/C=C\c1cc(F)ccc1S(=O)(=O)Nc1ccc2c([nH]c(=O)c3occc32)c1C(=O)O [Example 22, 7-[2-((Z)-3-Diethylaminoprop-1-enyl)-4-fluorobenzenesulfonylamino]-4-oxo-4,5-dihydrofuro[2,3-c]quinoline-6-carboxylic Acid]",< 100
24,"O=C(O)c1c(NS(=O)(=O)c2ccc(F)cc2/C=C\CN2CCC2)ccc2c1OCc1occc1-2 [Example 23, 7-{2-[(Z)-3-(Azetidin-1-yl)prop-1-enyl]-4-fluorobenzenesulfonyl-amino}-4H-furo[2,3-c]chromene-6-carboxylic Acid]",< 100
25,"O=C(O)c1c(NS(=O)(=O)c2ccc(F)cc2/C=C\CN2CC(O)C2)ccc2c1OCc1occc1-2 [Example 24, 7-{4-Fluoro-2-[(Z)-3-(3-hydroxyazetidin-1-yl)-prop-1-enyl]-benzenesulfonylamino}-4H-furo[2,3-c]chromene-6-carboxylic Acid]",< 100
26,"CCN(CC)C/C=C\c1cc(F)ccc1S(=O)(=O)Nc1ccc2c(c1C(=O)O)OCc1occ(F)c1-2 [Example 25, 7-[2-((Z)-3-Diethylaminoprop-1-enyl)-4-fluorobenzenesulfonylamino]-1-fluoro-4H-furo[2,3-c]chromene-6-carboxylic Acid]",< 100
27,"CCN(CC)C/C=C/c1cc(F)ccc1S(=O)(=O)Nc1ccc2c(c1C(=O)O)OCc1occc1-2 [Example 26, 7-[2-((E)-3-Diethylaminoprop-1-enyl)-4-fluorobenzenesulfonylamino]-4H-furo[2,3-c]chromene-6-carboxylic Acid]",< 100
